Test [1] addresses T1, Amine oxidase [flavin-containing] B (Homo sapiens, UniProt P27338).
T1 sequence (P27338 whole entry): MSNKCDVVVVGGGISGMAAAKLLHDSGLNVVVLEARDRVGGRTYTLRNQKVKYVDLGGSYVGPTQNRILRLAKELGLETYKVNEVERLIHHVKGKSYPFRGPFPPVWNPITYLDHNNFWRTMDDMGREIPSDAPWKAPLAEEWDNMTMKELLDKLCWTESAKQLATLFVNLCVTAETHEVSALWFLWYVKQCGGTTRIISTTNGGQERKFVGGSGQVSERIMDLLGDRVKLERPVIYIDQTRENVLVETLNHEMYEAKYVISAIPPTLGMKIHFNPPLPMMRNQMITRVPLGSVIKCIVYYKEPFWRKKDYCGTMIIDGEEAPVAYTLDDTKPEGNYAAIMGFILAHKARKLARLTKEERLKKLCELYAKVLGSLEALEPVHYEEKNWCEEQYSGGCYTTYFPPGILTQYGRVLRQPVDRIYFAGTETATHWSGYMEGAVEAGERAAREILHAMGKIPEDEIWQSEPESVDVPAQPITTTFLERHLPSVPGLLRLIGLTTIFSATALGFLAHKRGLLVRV
Description: Competitive inhibition of human recombinant MAO-B after 60 mins using p-tyramine as substrate by spectrophotometry

Test [2] addresses T2, Amine oxidase [flavin-containing] B (Rattus norvegicus, UniProt P19643).
T2 sequence (P19643 whole entry): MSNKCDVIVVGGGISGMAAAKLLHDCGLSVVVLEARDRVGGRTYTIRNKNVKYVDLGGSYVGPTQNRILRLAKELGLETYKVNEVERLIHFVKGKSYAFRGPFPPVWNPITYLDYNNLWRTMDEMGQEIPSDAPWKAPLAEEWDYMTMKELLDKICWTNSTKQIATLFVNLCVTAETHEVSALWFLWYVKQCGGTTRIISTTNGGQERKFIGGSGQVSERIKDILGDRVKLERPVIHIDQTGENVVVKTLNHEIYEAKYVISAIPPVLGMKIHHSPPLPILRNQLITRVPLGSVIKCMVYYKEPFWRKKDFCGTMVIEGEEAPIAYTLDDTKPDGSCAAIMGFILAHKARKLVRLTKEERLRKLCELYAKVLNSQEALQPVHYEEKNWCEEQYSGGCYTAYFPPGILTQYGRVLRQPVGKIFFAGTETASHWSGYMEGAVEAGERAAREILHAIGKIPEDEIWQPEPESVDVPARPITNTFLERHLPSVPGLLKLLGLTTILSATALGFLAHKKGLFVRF
Description: Competitive inhibition of rat liver MAO-B after 60 mins using p-tyramine as substrate by spectrophotometry.

Test [3] has as its target T3, Amine oxidase [flavin-containing] A (Rattus norvegicus, UniProt P21396).
T3 sequence (P21396 whole entry): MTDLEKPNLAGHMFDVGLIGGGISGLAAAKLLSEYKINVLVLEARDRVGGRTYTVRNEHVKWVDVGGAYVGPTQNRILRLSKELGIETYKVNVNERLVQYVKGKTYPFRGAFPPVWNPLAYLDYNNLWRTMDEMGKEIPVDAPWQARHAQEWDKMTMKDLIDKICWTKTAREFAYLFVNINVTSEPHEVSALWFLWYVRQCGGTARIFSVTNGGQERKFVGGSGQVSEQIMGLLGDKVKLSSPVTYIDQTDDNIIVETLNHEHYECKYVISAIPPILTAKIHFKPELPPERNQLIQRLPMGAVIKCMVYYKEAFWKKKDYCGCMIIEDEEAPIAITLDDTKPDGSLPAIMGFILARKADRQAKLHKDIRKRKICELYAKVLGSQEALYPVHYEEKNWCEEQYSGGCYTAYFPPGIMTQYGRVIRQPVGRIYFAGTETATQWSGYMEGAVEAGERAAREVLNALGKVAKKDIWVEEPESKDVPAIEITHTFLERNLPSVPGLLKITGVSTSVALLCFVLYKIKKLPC
The experiment in a line: Competitive inhibition of rat liver MAO-A after 60 mins using p-tyramine as substrate by spectrophotometry.

For test [4], the target named is T4, Amine oxidase [flavin-containing] A (Homo sapiens, UniProt P21397).
T4 sequence (P21397 whole entry): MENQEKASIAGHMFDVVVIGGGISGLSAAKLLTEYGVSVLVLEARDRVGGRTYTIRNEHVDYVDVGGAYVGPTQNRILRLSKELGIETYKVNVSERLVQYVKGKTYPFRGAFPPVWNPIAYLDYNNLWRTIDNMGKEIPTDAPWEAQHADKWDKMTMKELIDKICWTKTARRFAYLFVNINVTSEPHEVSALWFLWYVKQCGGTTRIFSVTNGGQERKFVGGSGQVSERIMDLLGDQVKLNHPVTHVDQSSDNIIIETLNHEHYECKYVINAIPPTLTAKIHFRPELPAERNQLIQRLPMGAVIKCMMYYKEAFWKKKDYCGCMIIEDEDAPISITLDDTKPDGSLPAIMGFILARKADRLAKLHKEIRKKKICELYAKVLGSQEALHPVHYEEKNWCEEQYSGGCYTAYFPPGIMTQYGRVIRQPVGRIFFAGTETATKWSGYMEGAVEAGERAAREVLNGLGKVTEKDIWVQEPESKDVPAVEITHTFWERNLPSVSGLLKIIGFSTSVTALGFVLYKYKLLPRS
Description: Competitive inhibition of human recombinant MAO-A after 60 mins using p-tyramine as substrate by spectrophotometry.

Results on ten compounds are retold here after ChEMBL document CHEMBL1759975, “Development of selective and reversible pyrazoline based MAO-B inhibitors: virtual screening, synthesis and biological evaluation” (Bioorg Med Chem Lett, 2011).

pKi: −log10 of the molar value.

For the compound `O=[N+]([O-])c1ccc(C2CC(c3c4ccccc4cc4ccccc34)=NN2)cc1` (stereo not drawn), the pKi is 8.94 in test [1], 8.64 in test [2], 7.70 in test [3] and 7.77 in test [4].

With `Oc1ccc(C2CC(c3c4ccccc4cc4ccccc34)=NN2)cc1` (stereo not drawn), the negative-log Ki (pKi) was 8.12 in test [1], 8.17 in test [2], 6.41 in test [3] and 6.65 in test [4].

Turning to `Clc1ccc(C2CC(c3c4ccccc4cc4ccccc34)=NN2)cc1` (stereo not drawn), the pKi in test [1] is 8.74; in test [2], 8.68; in test [3], 6.49; in test [4] it was 6.55.

Take `Cc1ccc(C2CC(c3c4ccccc4cc4ccccc34)=NN2)cc1` (stereo not drawn): the pKi in test [1] was 8.45; in test [2], 8.42; in test [3], 6.41; in test [4], 6.60.

As to `c1ccc(C2CC(c3c4ccccc4cc4ccccc34)=NN2)cc1` (stereo not drawn), the pKi in test [1] was 8.38; in test [2], 8.46; in test [3], 6.40; in test [4], 6.48.

Regarding `Oc1ccccc1C1CC(c2c3ccccc3cc3ccccc23)=NN1` (stereo not drawn), the pKi was 8.13 in test [1], 8.23 in test [2], 7.11 in test [3] and 7.16 in test [4].

`Oc1ccc(C2CC(c3c4ccccc4cc4ccccc34)=NN2)c(O)c1` (stereo not drawn): the pKi was 8.26 in test [1], 8.32 in test [2], 7.02 in test [3] and 7.09 in test [4].

Regarding `c1ccc(C2CC(c3c4ccccc4cc4ccccc34)=NN2)nc1` (stereo not drawn), the pKi is 8.24 in test [1], 8.00 in test [2], 6.62 in test [3] and 6.69 in test [4].

For `O=[N+]([O-])c1cccc(C2CC(c3c4ccccc4cc4ccccc34)=NN2)c1` (stereo not drawn), the negative logarithm of the Ki (pKi) in test [1] is 9.51; in test [2], 9.35; in test [3], 7.36; in test [4], 7.49.

For the compound `COc1ccc(C2CC(c3c4ccccc4cc4ccccc34)=NN2)cc1` (stereo not drawn), the results for the pKi in test [3] and in test [4] were 6.64 and 6.52, respectively.
